Biological target: T1, human αVβ6 (Homo sapiens, UniProt P06756+P18564)
T1 construct: purchased R & D systems 3817-AV
Experiment: human αVβ6 HTRF binding assay
Conditions: recombinant human αVβ6 integrin, FITC-conjugated fibronectin
Method in brief: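 Biotinylated recombinant αVβ6 (1.25 nM final) incubated with FITC-fibronectin (5 nM) 1 h at RT, then streptavidin-terbium (0.625 nM) added and incubated overnight at RT in the dark before HTRF read. Buffer: 20 mM Tris pH 7.4, 1 mM MgCl2, 1 mM MnCl2, 0.01% Tween 20, 0.01% BSA.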

T1 sequence (P06756 31-992 limits assumed): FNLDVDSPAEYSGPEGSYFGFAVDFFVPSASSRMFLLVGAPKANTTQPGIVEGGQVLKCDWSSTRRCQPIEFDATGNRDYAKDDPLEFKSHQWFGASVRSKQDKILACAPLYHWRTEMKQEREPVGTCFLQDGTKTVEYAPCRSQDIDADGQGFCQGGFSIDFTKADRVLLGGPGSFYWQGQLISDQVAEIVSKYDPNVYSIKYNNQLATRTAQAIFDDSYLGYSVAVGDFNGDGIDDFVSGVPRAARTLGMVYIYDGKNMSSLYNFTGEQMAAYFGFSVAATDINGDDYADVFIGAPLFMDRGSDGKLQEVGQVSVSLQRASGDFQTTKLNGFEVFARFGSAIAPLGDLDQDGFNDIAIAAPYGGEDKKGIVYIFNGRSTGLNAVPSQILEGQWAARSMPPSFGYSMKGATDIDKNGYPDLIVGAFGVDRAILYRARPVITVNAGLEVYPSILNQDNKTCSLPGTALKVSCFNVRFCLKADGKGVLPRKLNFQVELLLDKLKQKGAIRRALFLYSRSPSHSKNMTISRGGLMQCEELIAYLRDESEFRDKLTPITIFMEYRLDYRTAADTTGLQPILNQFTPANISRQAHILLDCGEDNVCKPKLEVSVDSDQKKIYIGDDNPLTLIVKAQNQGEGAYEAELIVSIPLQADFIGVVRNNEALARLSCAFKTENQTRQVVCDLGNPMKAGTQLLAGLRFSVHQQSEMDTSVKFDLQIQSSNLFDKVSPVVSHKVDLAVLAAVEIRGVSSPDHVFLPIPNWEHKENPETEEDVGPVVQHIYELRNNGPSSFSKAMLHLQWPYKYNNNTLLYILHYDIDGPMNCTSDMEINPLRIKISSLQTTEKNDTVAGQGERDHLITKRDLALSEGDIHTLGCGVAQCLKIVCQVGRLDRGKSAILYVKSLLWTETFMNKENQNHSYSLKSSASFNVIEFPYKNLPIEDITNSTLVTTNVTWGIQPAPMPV
T1 sequence (P18564 22-707 limits assumed): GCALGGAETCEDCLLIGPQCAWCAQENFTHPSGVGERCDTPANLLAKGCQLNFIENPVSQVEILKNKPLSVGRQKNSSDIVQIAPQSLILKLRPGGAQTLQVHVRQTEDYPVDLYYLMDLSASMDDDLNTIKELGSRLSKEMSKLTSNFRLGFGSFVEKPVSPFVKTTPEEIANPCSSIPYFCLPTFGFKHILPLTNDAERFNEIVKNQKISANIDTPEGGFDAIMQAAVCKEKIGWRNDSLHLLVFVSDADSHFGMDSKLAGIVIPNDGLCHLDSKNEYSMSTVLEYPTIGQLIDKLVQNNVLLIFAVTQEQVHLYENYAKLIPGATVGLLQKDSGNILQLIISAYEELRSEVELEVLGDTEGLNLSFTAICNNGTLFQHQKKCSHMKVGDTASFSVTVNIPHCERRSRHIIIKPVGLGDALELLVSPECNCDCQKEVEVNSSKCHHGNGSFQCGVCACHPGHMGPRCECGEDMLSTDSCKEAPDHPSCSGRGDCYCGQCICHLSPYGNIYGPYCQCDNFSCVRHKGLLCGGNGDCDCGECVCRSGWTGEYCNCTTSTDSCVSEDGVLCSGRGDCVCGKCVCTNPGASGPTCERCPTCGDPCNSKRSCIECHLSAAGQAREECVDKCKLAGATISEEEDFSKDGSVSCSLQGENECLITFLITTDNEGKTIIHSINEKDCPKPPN

SMILES	IC50 [nM]
O=C(O)CC(c1cnc2ccccc2c1)n1ncc(CCCc2ccc3c(n2)NCCC3)n1 (single isomer, unassigned) [Example 175, 3-(quinolin-3-yl)-3-(4-(3-(5,6,7,8-tetrahydro-1,8-naphthyridin-2-yl)propyl)-2H-1,2,3-triazol-2-yl)propanoic acid]	4.3
COc1ncc(C(CC(=O)O)n2ncc(CCCc3ccc4c(n3)NCCC4)n2)cn1 (single isomer, unassigned) [Example 176, 3-(2-methoxypyrimidin-5-yl)-3-(4-(3-(5,6,7,8-tetrahydro-1,8-naphthyridin-2-yl)propyl)-2H-1,2,3-triazol-2-yl)propanoic acid]	43
COc1ncc(C(CC(=O)O)n2ncc(CCCc3ccc4c(n3)NCCC4)n2)cn1 (single isomer, unassigned) [Example 177, 3-(2-methoxypyrimidin-5-yl)-3-(4-(3-(5,6,7,8-tetrahydro-1,8-naphthyridin-2-yl)propyl)-2H-1,2,3-triazol-2-yl)propanoic acid]	315
COc1ccc(C(CC(=O)O)c2nc(CCCc3ccc4c(n3)NCCC4)co2)cc1F (single isomer, unassigned) [Example 179, 3-(3-fluoro-4-methoxyphenyl)-3-(4-(3-(5,6,7,8-tetrahydro-1,8-naphthyridin-2-yl)propyl)oxazol-2-yl)propanoic acid]	66
COc1ccc(C(CC(=O)O)c2nc(CCCCc3ccc4c(n3)NCCC4)c(C)o2)cc1F (single isomer, unassigned) [Example 180, 3-(3-fluoro-4-methoxyphenyl)-3-(5-methyl-4-(4-(5,6,7,8-tetrahydro-1,8-naphthyridin-2-yl)butyl)oxazol-2-yl)propanoic acid]	250
COc1ccc([C@H](CC(=O)O)c2cnn(CCCc3ccc4c(n3)NCCC4)c2)cn1 [Example 8, (A)-3-(6-Methoxypyridin-3-yl)-3-(1-(3-(5,6,7,8-tetrahydro-1,8-naphthyridin-2-yl)propyl)-1H-pyrazol-4-yl)propanoic acid]	64
COc1ccc([C@@H](CC(=O)O)c2cnn(CCCc3ccc4c(n3)NCCC4)c2)cn1 [Example 9, (R)-3-(6-Methoxypyridin-3-yl)-3-(1-(3-(5,6,7,8-tetrahydro-1,8-naphthyridin-2-yl)propyl)-1H-pyrazol-4-yl)propanoic acid]	213
O=C(O)C[C@@H](c1ccc(O)nc1)n1ccc(CCCc2ccc3c(n2)NCCC3)n1 [Example 12, (S)-3-(6-Hydroxypyridin-3-yl)-3-(3-(3-(5,6,7,8-tetrahydro-1,8-naphthyridin-2-yl)propyl)-1H-pyrazol-1-yl)propanoic acid]	31
COc1ccc(C(CC(=O)O)c2cnn(CCCCc3ccc4c(n3)NCCC4)c2)cc1F (stereo not shown) [Example 44, 3-(3-fluoro-4-methoxyphenyl)-3-(1-(4-(5,6,7,8-tetrahydro-1,8-naphthyridin-2-yl)butyl)-1H-pyrazol-4-yl)propanoic acid]	64
O=C(O)C[C@@H](c1cnc2c(c1)OCCO2)n1ccc(CCCc2ccc3c(n2)NCCC3)n1 [Example 51, (S)-3-(2,3-Dihydro-[1,4]dioxino[2,3-b]pyridin-7-yl)-3-(3-(3-(5,6,7,8-tetrahydro-1,8-naphthyridin-2-yl)propyl)-1H-pyrazol-1-yl)propanoic acid]	4.9
O=C(O)C[C@H](c1cnc2c(c1)OCCO2)n1ccc(CCCc2ccc3c(n2)NCCC3)n1 [Example 52, (R)-3-(2,3-Dihydro-[1,4]dioxino[2,3-b]pyridin-7-yl)-3-(3-(3-(5,6,7,8-tetrahydro-1,8-naphthyridin-2-yl)propyl)-1H-pyrazol-1-yl)propanoic acid]	730
Cc1ncc([C@@H](CC(=O)O)n2ccc(CCCc3ccc4c(n3)NCCC4)n2)cn1 [Example 55, (R)-3-(2-Methylpyrimidin-5-yl)-3-(3-(3-(5,6,7,8-tetrahydro-1,8-naphthyridin-2-yl)propyl)-1H-pyrazol-1-yl)propanoic acid]	900
CCOc1ncc([C@H](CC(=O)O)n2ccc(CCCc3ccc4c(n3)NCCC4)n2)cn1 [Example 56, (S)-3-(2-Ethoxypyrimidin-5-yl)-3-(3-(3-(5,6,7,8-tetrahydro-1,8-naphthyridin-2-yl)propyl)-1H-pyrazol-1-yl)propanoic acid]	7.1
CCOc1ncc([C@@H](CC(=O)O)n2ccc(CCCc3ccc4c(n3)NCCC4)n2)cn1 [Example 81, (R)-3-(2-ethoxypyrimidin-5-yl)-3-(3-(3-(5,6,7,8-tetrahydro-1,8-naphthyridin-2-yl)propyl)-1H-pyrazol-1-yl)propanoic acid]	480
COc1ncc([C@H](CC(=O)O)n2ccc(CCCc3ccc4c(n3)NCCC4)n2)cn1 [Example 82, (S)-3-(2-methoxypyrimidin-5-yl)-3-(3-(3-(5,6,7,8-tetrahydro-1,8-naphthyridin-2-yl)propyl)-1H-pyrazol-1-yl)propanoic acid]	8.5
COc1ncc([C@@H](CC(=O)O)n2ccc(CCCc3ccc4c(n3)NCCC4)n2)cn1 [Example 83, (R)-3-(2-methoxypyrimidin-5-yl)-3-(3-(3-(5,6,7,8-tetrahydro-1,8-naphthyridin-2-yl)propyl)-1H-pyrazol-1-yl)propanoic acid]	310

SMILES	IC50 [nM]
O=C(O)CC(c1cncnc1)n1ccc(CCCc2ccc3c(n2)NCCC3)n1 (stereo not shown) [Example 84, 3-(pyrimidin-5-yl)-3-(3-(3-(5,6,7,8-tetrahydro-1,8-naphthyridin-2-yl)propyl)-1H-pyrazol-1-yl)propanoic acid]	110
O=C(O)C[C@@H](c1cnc(O)nc1)n1ccc(CCCc2ccc3c(n2)NCCC3)n1 [Example 85, (S)-3-(2-hydroxypyrimidin-5-yl)-3-(3-(3-(5,6,7,8-tetrahydro-1,8-naphthyridin-2-yl)propyl)-1H-pyrazol-1-yl)propanoic acid]	52
Cc1ncc([C@H](CC(=O)O)n2ccc(CCC[C@H]3CCc4cccnc4N3)n2)cn1 [Example 86, (S)-3-(2-methylpyrimidin-5-yl)-3-(3-(3-((S)-1,2,3,4-tetrahydro-1,8-naphthyridin-2-yl)propyl)-1H-pyrazol-1-yl)propanoic acid]	270
Cc1ncc(C(CC(=O)O)n2nccc2CCC[C@H]2CCc3cccnc3N2)cn1 (stereo partly drawn) [Example 87, 3-(2-methylpyrimidin-5-yl)-3-(5-(3-((S)-1,2,3,4-tetrahydro-1,8-naphthyridin-2-yl)propyl)-1H-pyrazol-1-yl)propanoic acid]	1380
Cc1ncc([C@H](CC(=O)O)n2ccc(CCC[C@@H]3CCc4cccnc4N3)n2)cn1 [Example 88, (S)-3-(2-methylpyrimidin-5-yl)-3-(3-(3-((R)-1,2,3,4-tetrahydro-1,8-naphthyridin-2-yl)propyl)-1H-pyrazol-1-yl)propanoic acid]	170
COc1ncc([C@H](CC(=O)O)n2ccc(CCC[C@H]3CCc4cccnc4N3)n2)cn1 [Example 89, (S)-3-(2-methoxypyrimidin-5-yl)-3-(3-(3-((S)-1,2,3,4-tetrahydro-1,8-naphthyridin-2-yl)propyl)-1H-pyrazol-1-yl)propanoic acid]	100
COc1ncc([C@H](CC(=O)O)n2ccc(CCC[C@@H]3CCc4cccnc4N3)n2)cn1 [Example 90, (S)-3-(2-methoxypyrimidin-5-yl)-3-(3-(3-((R)-1,2,3,4-tetrahydro-1,8-naphthyridin-2-yl)propyl)-1H-pyrazol-1-yl)propanoic acid]	220
Cc1ncc(C(CC(=O)O)n2ccc(CCCc3ccc4c(n3)NCCCC4)n2)cn1 (stereo not shown) [Example 98, 3-(2-methylpyrimidin-5-yl)-3-(3-(3-(6,7,8,9-tetrahydro-5H-pyrido[2,3-b]azepin-2-yl)propyl)-1H-pyrazol-1-yl)propanoic acid]	595
O=C(O)C[C@@H](c1ccc(=O)n(Cc2ccccc2)c1)n1ccc(CCCc2ccc3c(n2)NCCC3)n1 [Example 109, (S)-3-(1-benzyl-6-oxo-1,6-dihydropyridin-3-yl)-3-(3-(3-(5,6,7,8-tetrahydro-1,8-naphthyridin-2-yl)propyl)-1H-pyrazol-1-yl)propanoic acid]	4.2
O=C(O)C[C@@H](c1ccc(OCc2ccccc2)nc1)n1ccc(CCCc2ccc3c(n2)NCCC3)n1 [Example 110, (S)-3-(6-(benzyloxy)pyridin-3-yl)-3-(3-(3-(5,6,7,8-tetrahydro-1,8-naphthyridin-2-yl)propyl)-1H-pyrazol-1-yl)propanoic acid]	9.3
O=C(O)C[C@@H](c1ccc(=O)n(CC2CC2)c1)n1ccc(CCCc2ccc3c(n2)NCCC3)n1 [Example 111, (S)-3-(1-(cyclopropylmethyl)-6-oxo-1,6-dihydropyridin-3-yl)-3-(3-(3-(5,6,7,8-tetrahydro-1,8-naphthyridin-2-yl)propyl)-1H-pyrazol-1-yl)propanoic acid]	19
O=C(O)C[C@@H](c1ccc(OCC2CC2)nc1)n1ccc(CCCc2ccc3c(n2)NCCC3)n1 [Example 112, (S)-3-(6-(cyclopropylmethoxy)pyridin-3-yl)-3-(3-(3-(5,6,7,8-tetrahydro-1,8-naphthyridin-2-yl)propyl)-1H-pyrazol-1-yl)propanoic acid]	3.5
COc1ccc(C(CC(=O)O)c2ccn(CCCc3ccc4c(n3)NCCC4)n2)cn1 (stereo not shown) [Example 113, 3-(6-methoxypyridin-3-yl)-3-(1-(3-(5,6,7,8-tetrahydro-1,8-naphthyridin-2-yl)propyl)-1H-pyrazol-3-yl)propanoic acid]	35
Cc1ncc([C@@H](CC(=O)O)n2cc(F)c(CCCc3ccc4c(n3)NCCC4)n2)cn1 [Example 114, (R)-3-(4-fluoro-3-(3-(5,6,7,8-tetrahydro-1,8-naphthyridin-2-yl)propyl)-1H-pyrazol-1-yl)-3-(2-methylpyrimidin-5-yl)propanoic acid]	4800
COc1ccc(C(CC(=O)O)c2cc(CCCc3ccc4c(n3)NCCC4)[nH]n2)cc1F (stereo not shown) [Example 116, 3-(3-Fluoro-4-methoxyphenyl)-3-(5-(3-(5,6,7,8-tetrahydro-1,8-naphthyridin-2-yl)propyl)-1H-pyrazol-3-yl)propanoic acid]	47
